ChEMBL document CHEMBL4368861 (Medchemcomm, 2018)
pIC50: −log10 of the molar value.

Test system: Trypanosoma brucei brucei
Test: microbe, parasite or virus in culture
Assay type: functional, organism-based
Conditions: 427

| SMILES | pIC50 |
| --- | --- |
| Cc1nn(C)c(C)c1NS(=O)(=O)c1c(Cl)cc(-c2ccnc(N3CCNCC3)c2)cc1Cl | 8.00 |
| COc1cccc(-n2nnnc2S(C)(=O)=O)c1 | 5.39 |
| CN(C)c1cc(NC(=O)Nc2ccccc2)c2ccccc2n1 | 5.47 |
| CC1=Nc2ccc(Cl)cc2C(O)(c2ccc(C)cc2)N1CCN1CCCCC1 (configuration not stated) | 5.35 |
| COc1ccc(C2=NN(C3CCCCCC3)C(=O)C2(C)C)cc1OCCCCOc1ccc(-c2nn[nH]n2)cc1 | 5.64 |
| O=C(Nc1ccc(C(F)(F)F)c(C(F)(F)F)c1)c1cc(Cl)ccc1O | 6.18 |
| COc1ccc(C2=NN(C3CCCCCC3)C(=O)[C@@H]3CC=CC[C@H]23)cc1OCCCCOc1ccc(-c2nnn[nH]2)cc1 | 6.30 |
| O=C(Nc1ccc2c(c1)B(O)OC2)c1ccccc1C(F)(F)F | 6.96 |
| CS(=O)(=O)c1ccccc1C(=O)N(Cc1ccccc1)c1ccccc1 | 6.30 |
| CNC(=O)C1Cc2ccccc2N1C(=O)Cc1ccc(F)cc1 (configuration not stated) | 5.82 |
| Cc1nn2c(=O)c3c([nH]c2c1-c1ccc(Cl)cc1)CCCC3 | 5.74 |
| Cc1noc(C)c1COc1cccc(C(=O)N=c2[nH]cccc2C)c1 | 5.92 |
| CCN(CC)S(=O)(=O)c1ccc(C(=O)Nc2cc(C)nn2-c2nc(C)c(C)c(=O)[nH]2)cc1 | 5.37 |
| CCC(=O)Nc1ccccc1C(=O)Nc1ccccn1 | 6.00 |
| O=C(NCc1nnc2n1CCCCC2)c1ccc(-c2ccc(F)cc2)o1 | 6.64 |
| O=C(NCCc1ccn(-c2ccccc2)n1)C1CCCCC1 | 6.57 |
| CC1CCCCN1C(=O)NCCc1coc(-c2ccc(F)cc2)n1 (configuration not stated) | 6.89 |

| SMILES | pIC50 |
| --- | --- |
| COc1ccc(S(=O)(=O)Nc2ccc(CN3CCN(C(=O)c4cccc(C#N)c4)CC3)cc2)cc1 | 5.96 |
| Cc1ccc(S(=O)(=O)Nc2ccc(CN3CCN(C(=O)c4cccc(C#N)c4)CC3)cc2)cc1 | 6.62 |
| CCOC(=O)c1c(NC(=O)c2c(F)c(F)c(F)c(F)c2F)sc(C(N)=O)c1C | 5.52 |
| CC(C)(C)c1cnc(NC(=O)c2ccccc2O)s1 | 5.26 |
| NCCN(C(=O)c1ccc(Cl)cc1Cl)c1ccc(OCc2ccc(Cl)cc2)cc1 | 6.62 |
| CCc1ccccc1-n1c(C)cn2c3c(=O)n(C(C(=O)OC)C(C)C)c(=O)n(C)c3nc12 (configuration not stated) | 6.89 |
| Cc1[nH]c2ccccc2c1C(c1cccs1)N1CCN(C)CC1 (configuration not stated) | 5.82 |
| CS(=O)(=O)c1ccc(C(=O)N(CC2CCCO2)c2nc3ccccc3s2)cc1[N+](=O)[O-] (configuration not stated) | 5.46 |
| CCCCN(CCCC)c1c(C#N)cc(S(=O)(=O)Nc2ccccc2)cc1C#N | 5.92 |
| N=C(N)Nc1ccc(-c2ccc(-c3ccc(NC(=N)N)cc3Cl)o2)c(Cl)c1 | 5.24 |
| O=C(Nc1ccccc1)c1ccc(-c2cc3ccncc3cc2OC2CCNCC2)s1 | 5.57 |
| O=C(NCCc1ccccc1)c1cc(-c2cccnc2)cnc1NCC1CC1 | 5.22 |
| c1ccc(-c2nc(NC3CCCCC3)cc(C3CC3)n2)nc1 | 5.45 |
| Cc1ccc2c(c1C)NC(=O)C21NN=C(c2ccccc2)S1 (configuration not stated) | 5.33 |
| CN1CCC(NCc2cccc(-c3ccc(S(=O)(=O)NCc4ccccc4)cc3)c2)CC1 | 5.62 |
| CO[C@@H](C(=O)N1Cc2[nH]nc(NC(=O)c3ccc(N4CCN(C)CC4)cc3)c2C1)c1ccccc1 [DANUSERTIB] | 5.89 |
| CNC(=O)c1nn(C)c2c1C(C)(C)Cc1cnc(Nc3ccc(N4CCN(C)CC4)cc3)nc1-2 [MILCICLIB] | 6.77 |

The next lines start with the values.

| pIC50 | SMILES |
| --- | --- |
| 6.57 | COc1ccc(C(=N)N)cc1-c1cn(-c2ccc(C(=N)N)cc2)nn1 |
| 5.49 | CC(Oc1ccccc1)C(=O)Nc1nc(-c2ccccn2)cs1 (configuration not stated) |
| 5.21 | CC(C)n1nc(-c2cc3c(Cl)cccc3[nH]2)c2c(N)ncnc21 |
| 5.54 | O=C(Nc1nc(-c2ccccn2)cs1)c1cncn1-c1ccccc1 |
| 5.98 | Nc1nc2cc(-c3cncc(Oc4ccc(F)cc4)c3)ccc2[nH]1 |
| 5.46 | N=C(N)c1ccc(-c2cc(-c3ccccc3)on2)cc1 |
| 5.29 | c1ccc(Oc2ccc(-c3cc(N4CCNCC4)[nH]n3)cc2)cc1 |
| 5.74 | c1ccc(Oc2ccc(-c3cc(C4CCOCC4)[nH]n3)cc2)cc1 |
| 7.70 | O=C(Nc1ccc(F)c(-c2nc3cc(-c4ccccc4)cnc3[nH]2)c1)N1CCCC1 |
| 5.28 | CN1CCN(S(=O)(=O)c2ccc(-c3ccc4c(Nc5ncc(Cl)cn5)ccnc4c3)cc2)CC1 |
| 6.28 | N=C(N)Nc1ccc(-c2ccc(-c3ccc(N=C(N)N)c(Cl)c3)o2)cc1Cl |
| 5.62 | OCCc1ccc(Nc2nccc(-c3nnc4ccccn34)n2)cc1 |
| 5.84 | O=C(Nc1ccc(N2CCNCC2)cc1)c1ccn2ncc(-c3cccc(Cl)c3)c2n1 |
| 5.48 | Nc1nccc2ccc(-c3ccc4nccn4c3)cc12 |
| 5.29 | Cc1ccc2[nH]c(C3CCCNC3)c(-c3ccncc3)c2c1 (configuration not stated) |
| 5.68 | COc1ccc(OC)c(NCc2ccc3nc(N)nc(N)c3c2Cl)c1 |
| 6.85 | Cc1ncc(-c2ccnc(Nc3ccc(S(C)(=O)=O)cc3)n2)n1C(C)C [AZD-5438] |

Test system: Trypanosoma brucei brucei
Test: Antitrypanosomal activity against Trypanosoma brucei brucei by pathogen box screening based assay
Assay type: functional, organism-based
Conditions: not given

| pIC50 | SMILES |
| --- | --- |
| 6.30 | Cc1nn2c(=O)c3c([nH]c2c1-c1ccc(Cl)cc1)CCCC3 |

Test system: not listed separately
Test: in vitro
Conditions: human

| SMILES | selectivity ratio |
| --- | --- |
| CC(Oc1ccccc1)C(=O)Nc1nc(-c2ccccn2)cs1 (configuration not stated) | 11 |
| CN(C)c1cc(NC(=O)Nc2ccccc2)c2ccccc2n1 | 5.3 |
| CC(C)n1nc(-c2cc3c(Cl)cccc3[nH]2)c2c(N)ncnc21 | 5.8 |
| COC(=O)c1c(NC(=O)c2c(F)c(F)c(F)c(F)c2F)sc2c1CCCCC2 | 2.2 |
| Cc1cnc(N2CCN[C@@H](Cc3ccccc3)C2)nc1Oc1ccc(-n2ccnc2)cc1 | 4.9 |
| COc1ccc2nccc(NC(=O)C3CCN(CCc4ccc(Cl)cc4)CC3)c2n1 | 0.8 |
| CCOC(=O)c1c(NC(=O)c2c(F)c(F)c(F)c(F)c2F)sc(C(N)=O)c1C | 2.2 |
| CCCn1c(NC(=O)c2ccc3ccccc3n2)nc2ccccc21 | 3.5 |
| CS(=O)(=O)c1ccc(C(=O)N(CC2CCCO2)c2nc3ccccc3s2)cc1[N+](=O)[O-] (configuration not stated) | 2.3 |
| COc1cc(-c2cc(-c3ccc(S(C)(=O)=O)cc3)cnc2N)ccc1O | 76 |
| c1ccc(-c2nc(NC3CCCCC3)cc(C3CC3)n2)nc1 | 30 |
| OCCc1ccc(Nc2nccc(-c3nnc4ccccn34)n2)cc1 | 17 |
| CN1CCC(NCc2cccc(-c3ccc(S(=O)(=O)NCc4ccccc4)cc3)c2)CC1 | 59 |
| COc1ccc(OC)c(NCc2ccc3nc(N)nc(N)c3c2Cl)c1 | 21 |
| Oc1c(I)cc(I)c2cccnc12 [IODOQUINOL] | 13 |
